Values after ≈ are worked out from the molar mass of the structure shown. Values joined by “and” are separate entries in the source; they are usually repeats but may differ in a detail not shown here. Identical values can stand only once. Like-named read-outs stand apart in the source and are kept apart here.
Legend:
[1] = DPPH radical scavenging activity; settings: for AA (mg/gm) Avg (DPPH activity) / AA (mg/gm) (DPPH activity), single trial: Conc 20 µg/mL; for AA (mg/gm) Avg (DPPH activity): average of trials A-C; for AA (mg/gm) (DPPH activity), single trial: single trials A, B, C; for DPPH IC50: mean ± SD, triplicate, 30 min, 517 nm
Experimental: The ability of the samples to scavenge DPPH radical was determined by [Wang, Chen & Hou (2019)] method with slight modification ([Wang, Chen & Hou, 2019]). […] Samples were incubated at ambient temperature under dark conditions for 30 min and the absorbance wavelength was measured at 517 nm against a blank sample. DPPH^• solution and ascorbic acid were used as blank samples and positive control, respectively.
where Ab and As are the absorbance values of the blank and test samples, respectively.

[2] = ABTS radical cation decolorization assay; settings: for AA (mg/gm) Avg (ABTS+ activity) / AA (mg/gm) (ABTS+ activity), single trial: Conc. 20 µg/mL; for AA (mg/gm) Avg (ABTS+ activity): average of trials A-C; for AA (mg/gm) (ABTS+ activity), single trial: single trials A, B, C; for ABTS^+ IC50: mean ± SD, triplicate, 30 min, 734 nm
Experimental: ABTS radical cation decolorization assay was performed to measure the total antioxidant activity of the samples by obeying the previously described method ([Re et al., 1999]). In brief, ABTS^•+ radicals were generated by treating 7 mM ABTS^+ aqueous solution with 2.4 mM potassium persulfate for 12-16 h at room temperature in the dark. Prior to use, this solution was diluted with ethanol (approx. 1:89 v/v) and equilibrated to […] absorbance at 734 nm to obtain the working solution. Afterward, a 1.0 mL of working solution was reacted with 20 µL (1 mg mL^−1) samples and incubated for 30 min. After incubation, samples were scanned at 734 nm absorbance wavelength and the percentage of inhibition was determined. Ascorbic acid (AA) was applied reference standard.

[3] = tested on: Escherichia coli (ATCC 25922); experiment: MIC, broth microdilution with resazurin; type: cell-based; settings: 24 h at 37 °C; for MIC: Escherichia coli, ATCC25922, 24 h
Experimental: (§1) The acetylcholinesterase (AChE) and butyrylcholinesterase (BChE) were obtained from the mouse brain and human blood at the Pharmacology Department of King Saud University, SaudiArabia. Escherichia coli (ATCC 25922), Pseudomonas aeruginosa (ATCC 27853), and Staphylococcus aureus were provided by Microbiology Department, King Khaled University Hospital (KKUH), Saudi Arabia.
(§2) Minimum inhibitory concentration (MIC) assay was performed to evaluate the in vitro antimicrobial activities using a broth microdilution method ([Nascente, 2009]). Three bacterial strains Escherichia coli (ATCC 25922), Pseudomonas aeruginosa (ATCC 27853), and Staphylococcus aureus were applied to examine the antimicrobial activity of samples. Briefly, the microbial strains were transferred to Muller Hinton agar (MHB, HiMedia, India) and 24-h colonies were individually suspended in 10 mL Muller Hinton broth (MHB, HiMedia, India). The suspension of each microbial strain was standardized at 575 nm wavelength using a spectrophotometer (CRAIC Technologies, CA, USA), to match the McFarland scale (1.5 × 10^8 CFU mL^−1). The standardized suspension was further diluted to obtain a final concentration of 5 × 10^5 CFU mL^−1. The samples prepared in DMSO at 1 mgmL^−1 and different concentrations (30–500 µgmL^−1) were attained after dilution in Mueller Hinton broth. Three inoculated wells containing different concentrations of DMSO (4% to 1% range), one non-inoculated well without an antimicrobial agent and negative controls were included. The inoculated well was used to monitor whether the broth was sufficient for the microbial strain to grow. Chloramphenicol ([…]) was applied as a positive control. The sample treated 96-well microplates were sealed and incubated for 24 h at 37 °C After a 1-day incubation, […] of 0.02% resazurin solution was added into each well to examine the viability of the microbial strain ([Palomino et al., 2002]). The minimum used concentration of test sample that inhibited the microorganism growth (MIC value) was calculated as the minimum concentration of the test samples required to prevent the color change of the resazurin solution. All the assays were performed in triplicates.

[4] = tested on: Pseudomonas aeruginosa (ATCC 27853); experiment: MIC, broth microdilution with resazurin; type: cell-based; settings: 24 h at 37 °C; for MIC: Pseudomonas aeruginosa, ATCC27853, 24 h
Experimental: as §1, §2

Staphylococcus aureus = experiment: MIC, broth microdilution with resazurin; type: cell-based; settings: 24 h at 37 °C; for MIC: Staphylococcus aureus, 24 h
Experimental: as §1, §2

[5] = biological target: T1, butyrylcholinesterase (BChE) (Homo sapiens, UniProt P06276); experiment: biochemical; settings: for Gal (mg/gm) Avg (BChE inhibitory activity) / Abs (BChE inhibitory activity) / Gal (mg/gm) (BChE inhibitory activity), single trial: Conc 10 µg/mL; for Gal (mg/gm) Avg (BChE inhibitory activity): average of trials A-C; for Abs (BChE inhibitory activity) / Gal (mg/gm) (BChE inhibitory activity), single trial: single trials A, B, C;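 on Abs (BChE inhibitory activity): absorbance read at 405 nm against blank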
T1 construct: Crude enzymes, AChE (acetylcholinesterase) and BChE (butyrylcholinesterase) were collected from brain of mice and blood of humans, respectively; from tissue; host or cells: human blood
Experimental: (§3) The acetylcholinesterase (AChE) and butyrylcholinesterase (BChE) were obtained from the mouse brain and human blood at the Pharmacology Department of King Saud University, SaudiArabia.
(§4) The AChE and BChE assays were tested by using two chemical substrates acetylthiocholine iodide and S-butyrylthiochoilne iodide, respectively. […] Afterwards, […] (1 mM, 62 µL), sodium phosphate buffer (50 mM, 25 µL, pH 8) provided with bovine albumin serum (0.1%) and […] (0.5 mm, 13 µL) were added separately into each reaction mixture. […] All the experiments were performed in triplicates to avoid error and the results were estimated through the two-tailed Student’s t-test at a p < 0.05 significance. The inhibition percentage of cholinesterase activity was calculated using the following equation I%=AC−As/AC×100
(§5) where Ac and As is the absorbance of control and sample or reference compound. IC50 values could be determined from the dose response curve obtained by plotting the percent inhibition values against test concentrations of each compound.

[6] = biological target: T2, acetylcholinesterase (AChE) (Mus musculus, UniProt P21836); experiment: biochemical; settings: for Donep (mg/gm) Avg (AChE inhibitory activity) / Abs (AChE inhibitory activity) / Donep (mg/gm) (AChE inhibitory activity), single trial: Conc 10 µg/mL; for Donep (mg/gm) Avg (AChE inhibitory activity): average of trials A-C; for Abs (AChE inhibitory activity) / Donep (mg/gm) (AChE inhibitory activity), single trial: single trials A, B, C
T2 construct: Crude enzymes, AChE (acetylcholinesterase) and BChE (butyrylcholinesterase) were collected from brain of mice and blood of humans, respectively; from tissue; host or cells: mouse brain
Experimental: as §3, §4, §5

[7] = E. coli, read-out: Minimum inhibitory concentration
[8] = P. aeruginosa, read-out: Minimum inhibitory concentration
[9] = S. aureus, read-out: Minimum inhibitory concentration
[10] = crude enzyme from human blood, mean ± SD, triplicate, read-out: BChE IC50 (converted)
[11] = crude enzyme from mouse brain, mean ± SD, triplicate, read-out: AChE IC50 (converted)

T1 sequence (P06276 29-602): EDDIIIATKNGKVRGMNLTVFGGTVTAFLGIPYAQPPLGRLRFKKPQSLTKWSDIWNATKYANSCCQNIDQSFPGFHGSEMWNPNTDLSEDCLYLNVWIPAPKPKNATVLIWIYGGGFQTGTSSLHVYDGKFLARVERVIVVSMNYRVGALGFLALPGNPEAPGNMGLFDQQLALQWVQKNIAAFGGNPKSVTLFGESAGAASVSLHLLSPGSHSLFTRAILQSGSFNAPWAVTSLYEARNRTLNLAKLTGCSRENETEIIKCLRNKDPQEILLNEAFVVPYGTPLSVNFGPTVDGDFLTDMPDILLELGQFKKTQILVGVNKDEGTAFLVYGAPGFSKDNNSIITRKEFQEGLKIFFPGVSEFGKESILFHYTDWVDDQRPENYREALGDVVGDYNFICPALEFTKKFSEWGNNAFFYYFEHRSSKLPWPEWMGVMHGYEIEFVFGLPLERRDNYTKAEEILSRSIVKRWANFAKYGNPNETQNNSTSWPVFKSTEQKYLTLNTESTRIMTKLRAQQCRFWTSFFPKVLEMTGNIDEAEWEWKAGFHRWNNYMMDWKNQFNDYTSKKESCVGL
T2 sequence (P21836 32-614): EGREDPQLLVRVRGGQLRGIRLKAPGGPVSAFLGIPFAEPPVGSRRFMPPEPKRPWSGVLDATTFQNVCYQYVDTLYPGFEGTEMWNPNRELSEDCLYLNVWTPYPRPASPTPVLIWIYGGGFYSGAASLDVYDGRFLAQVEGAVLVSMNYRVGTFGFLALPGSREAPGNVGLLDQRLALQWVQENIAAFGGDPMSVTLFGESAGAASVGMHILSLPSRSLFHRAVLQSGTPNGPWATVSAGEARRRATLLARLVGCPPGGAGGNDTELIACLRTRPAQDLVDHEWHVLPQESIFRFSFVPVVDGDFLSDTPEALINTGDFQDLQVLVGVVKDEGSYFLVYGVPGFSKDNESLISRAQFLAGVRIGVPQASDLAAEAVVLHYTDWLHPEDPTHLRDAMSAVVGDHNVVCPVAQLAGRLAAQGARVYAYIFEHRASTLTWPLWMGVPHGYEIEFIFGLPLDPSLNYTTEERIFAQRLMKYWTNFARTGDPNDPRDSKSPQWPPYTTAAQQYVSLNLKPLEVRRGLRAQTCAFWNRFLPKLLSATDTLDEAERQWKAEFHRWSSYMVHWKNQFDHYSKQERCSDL

| SMILES | AA (mg/gm) Avg (DPPH activity) [1] [mg/gm] | AA (mg/gm) (DPPH activity), single trial [1] | DPPH IC50 [1] | AA (mg/gm) Avg (ABTS+ activity) [2] [mg/gm] | AA (mg/gm) (ABTS+ activity), single trial [2] | ABTS^+ IC50 [2] | MIC [3, 7] [µg/mL] | MIC [4, 8] [µg/mL] | MIC (Staphylococcus aureus; [9]) [µg/mL] | Gal (mg/gm) Avg (BChE inhibitory activity) [5] [mg/gm] | Abs (BChE inhibitory activity) [5] | Gal (mg/gm) (BChE inhibitory activity), single trial [5] | IC50 [5, 10] [µM] | Donep (mg/gm) Avg (AChE inhibitory activity) [6] [mg/gm] | Abs (AChE inhibitory activity) [6] | Donep (mg/gm) (AChE inhibitory activity), single trial [6] | IC50 [6, 11] [µM] | Minimum inhibitory concentration ([3]; E. coli) [µg/mL] | Minimum inhibitory concentration ([4]; P. aeruginosa) [µg/mL] | Minimum inhibitory concentration (Staphylococcus aureus; S. aureus) [µg/mL] | further results |
| --- | --- | --- | --- | --- | --- | --- | --- | --- | --- | --- | --- | --- | --- | --- | --- | --- | --- | --- | --- | --- | --- |
| O=C1O[C@H]([C@@H](O)CO)C(O)=C1O [Ascorbic acid, ascorbic acid, reference compound] | 3.12 | 3.30 mg/gm and 2.84 mg/gm and 3.22 mg/gm | 3.12 ± 0.24^a µgmL^−1 | 4.45 | 4.52 mg/gm and 4.25 mg/gm and 4.58 mg/gm | 4.45 ± 0.17^a µgmL^−1 | – | – | – | – | – | – | – | – | – | – | – | – | – | – | – |
| O=C(N[C@H](CO)[C@H](O)c1ccc([N+](=O)[O-])cc1)C(Cl)Cl [Chloramphenicol, reference compound] | – | – | – | – | – | – | ≤ 40 | ≤ 40 | ≤ 40 | – | – | – | – | – | – | – | – | – | – | – | – |
| CCCCCCCCCCCCCCCCCCCCC(O)C(=O)O (stereo not drawn) [Compound 1, 2-hydroxydocosanoic acid] | 10.82 | 10.98 mg/gm and 10.54 mg/gm and 10.96 mg/gm | 10.82 ± 0.24^d µgmL^−1 | 11.45 | 11.64 mg/gm and 11.02 mg/gm and 11.70 mg/gm | 11.45 ± 0.37^d µgmL^−1 | ≤ 500 | ≤ 1000 | ≤ 1000 | 137.76 | 0.375 and 0.379 and 0.354 | 138.12 mg/gm and 136.98 mg/gm and 138.18 mg/gm | 386 | 121.97 | 0.342 and 0.328 and 0.345 | 122.89 mg/gm and 120.10 mg/gm and 122.92 mg/gm | 342 | – | – | – | – |
| CC[C@@H](/C=C/[C@@H](C)C1CCC2C3CCC4C[C@@H](O)CC[C@]4(C)C3CC[C@@]21C)C(C)C (stereo partly drawn) [Compound 2, stigmasta-22-ene-3-β-ol] | 7.60 | 7.84 mg/gm and 7.12 mg/gm and 7.86 mg/gm | 7.60 ± 0.42^c µgmL^−1 | 8.18 | 8.25 mg/gm and 8.02 mg/gm and 8.28 mg/gm | 8.18 ± 0.13^c µgmL^−1 | – | – | – | 49.52 | 0.355 and 0.365 and 0.358 | 49.70 mg/gm and 49.12 mg/gm and 49.74 mg/gm | – | 68.65 | 0.312 and 0.315 and 0.317 | 68.94 mg/gm and 68.01 mg/gm and 69.02 mg/gm | – | ≤125 | ≤250 | ≤150 | IC50 [5]: 119 µM; IC50 [6]: 166 µM; MIC ([3]; read-out: Minimum inhibitory concentration, E. coli): ≤ 125 µg/mL; MIC ([4]; read-out: Minimum inhibitory concentration, P. aeruginosa): ≤ 250 µg/mL; MIC (Staphylococcus aureus; read-out: Minimum inhibitory concentration, S. aureus): ≤ 150 µg/mL |
| CCCCCCCCCCCCCCCCCCCCCCCCCCCCCCCC(=O)O[C@H]1C[C@H](O)[C@]2(C)C3=CC=C4[C@@H]5CC(CO)(C(=O)O)CC[C@]5(C)CC[C@@]4(C)[C@]3(C)CCC2C1(C)C (stereo partly drawn) [Compound 3, 1α,3β,30-Trihydroxy-29-carboxy-olean-9(11), 12-diene-3-dotriacontanoate] | 4.67 | 4.89 mg/gm and 4.35 mg/gm and 4.78 mg/gm | 4.67 ± 0.28^b µgmL^−1 | 6.42 | 6.56 mg/gm and 6.13 mg/gm and 6.58 mg/gm | 6.42 ± 0.25^b µgmL^−1 | 125 to 150 (≈ 132 to 158 µM) | 125 to 150 (≈ 132 to 158 µM) | 125 to 150 (≈ 132 to 158 µM) | 32.68 | 0.285 and 0.286 and 0.287 | 32.88 mg/gm and 32.25 mg/gm and 32.92 mg/gm | 34.4 | 38.13 | 0.289 and 0.294 and 0.315 | 38.16 mg/gm and 38.05 mg/gm and 38.20 mg/gm | 40.2 | ≤150 | ≤125 | ≤125 | Minimum inhibitory concentration ([3]; E. coli, listed as compound 3): ≤ 150 µg/mL; Minimum inhibitory concentration ([4]; P. aeruginosa, listed as compound 3): ≤ 125 µg/mL; Minimum inhibitory concentration (Staphylococcus aureus; S. aureus, listed as compound 3): ≤ 125 µg/mL |
| COc1ccc2c3c1O[C@H]1C[C@@H](O)C=C[C@@]31CCN(C)C2 [Galantamine, reference compound] | – | – | – | – | – | – | – | – | – | 10.27 | 0.345 and 0.348 and 0.352 | 10.78 mg/gm and 9.29 mg/gm and 10.80 mg/gm | – | – | – | – | – | – | – | – | – |
